SMILES strings stand for the structures. Starred links: 1 amine or outer side, 2 acyl side, 3 side chain; linkers in the order of their positions; H or OH if unused. Positions of bridges follow the written chain, without caps; N, C: chain ends. Non-standard residues stand in square brackets, D forms with d. Residues, ends and D or L forms follow the SMILES beside them. Chains are numbered I, II in the order given. Actinocin(1to9) = Cc1c2oc3c(C)ccc(C(=O)[*:2])c3nc-2c(C(=O)[*:1])c(N)c1=O; NMeV = CN[C@H](C(=O)O)C(C)C; Sar = CNCC(=O)O

Among the data in ChEMBL document CHEMBL1142397, “Antineoplastic agents. 536. New sources of naturally occurring cancer cell growth inhibitors from marine organisms, terrestrial plants, and microorganisms(1a,)” (J Nat Prod, 2008) are Activity values, retold here.

Common to all, as to format: functional
Test [1] relates to OVCAR-3. Nature of the test: Cytotoxicity against human OVCAR-3 cells assessed as concentration required for 50% inhibition.
Test [2] relates to NCI-H460. Nature of the test: Cytotoxicity against human NCIH460 cells assessed as concentration required for 50% inhibition.
Test [3] has as its system P388. Nature of the test: Cytotoxicity against mouse P388 cells assessed as concentration required for 50% inhibition.
For test [4], the system named is BXPC-3. Briefly: Cytotoxicity against human BXPC3 cells assessed as concentration required for 50% inhibition.
Test [5] relates to DU-145. Briefly: Cytotoxicity against human DU145 cells assessed as concentration required for 50% inhibition.
Test [6] relates to SF-295. Nature of the test: Cytotoxicity against human SF295 cells assessed as concentration required for 50% inhibition.
Test [7] has as its system KM-20L2. Nature of the test: Cytotoxicity against human KM20L2 cells assessed as concentration required for 50% inhibition.

For the compound `CCCCCCCCCCCCCC(=O)O[C@H]1CC[C@H](NC(=O)[C@H](OC)[C@H](O)[C@@H](O)[C@H](O)/C=C/C(C)C)C(=O)NC1` [BENGAMIDE A], the Activity came out at 0.01 µg/mL in test [1]; 0.00054 µg/mL in test [2]; 0.12 µg/mL in test [3]; 0.027 µg/mL in test [4]; 0.0056 µg/mL in test [5]; 0.001 µg/mL in test [6]. Besides, the Activity in test [7] was determined as 0.0049 µg/mL.

As for `COc1c(C)c2c(c(O)c1C/C=C(C)/C=C/C(=O)O)C(=O)OC2`, in test [3], the Activity was 0.11 µg/mL.

For the compound `CC(C)CCCCCCCCCCCC(=O)O[C@@H](c1cnco1)c1nc([C@@H](O)C[C@@H](O)[C@@H](O)[C@@H](C)O)co1` [BENGAZOLE B], the Activity came to 0.37 µg/mL in test [1]; 0.2 µg/mL in test [2]; 0.053 µg/mL in test [3]; 0.18 µg/mL in test [4]; 0.15 µg/mL in test [5]; 0.19 µg/mL in test [6]. Moreover, in test [7], the Activity turned out to be 0.33 µg/mL.

As for `C[C@H]1[C@H](C)CC[C@]2(C(=O)O)CC[C@]3(C)C(=CC[C@@H]4[C@@]5(C)CC[C@H](O)C(C)(C)[C@@H]5CC[C@]43C)[C@H]12` [URSOLIC ACID], the Activity in test [3] was above 1 µg/mL.

On to `COc1cc([C@@H]2c3cc4c(c(O)c3C[C@H]3COC(=O)[C@@H]32)OCO4)cc(OC)c1OC` [BETA-PELTATIN A], for which the Activity in test [1] is 0.00055 µg/mL; in test [2] it was 0.00077 µg/mL; in test [3], 0.0031 µg/mL; in test [4] it was 0.0012 µg/mL; in test [5], 0.0021 µg/mL; in test [6], 0.0004 µg/mL. In addition, the Activity in test [7] is 0.0076 µg/mL.

For the compound `Cc1c2oc3c(C)ccc(C(=O)N[C@@H]4C(=O)N[C@H](C(C)C)C(=O)N5CCC[C@H]5C(=O)N(C)CC(=O)N(C)[C@@H](C(C)C)C(=O)O[C@@H]4C)c3nc-2c(C(=O)N[C@@H]2C(=O)N[C@H](C(C)C)C(=O)N3CCC[C@H]3C(=O)N(C)CC(=O)N(C)[C@@H](C(C)C)C(=O)O[C@@H]2C)c(N)c1=O` [DACTINOMYCIN] (I: T[dV]P[Sar][NMeV] / II: T[dV]P[Sar][NMeV]; ester I:1-I:C, II:1-II:C; linker I:N-II:N via Actinocin(1to9)), in test [3], the Activity was below 0.001 µg/mL.

Regarding `CC(/C=C/C=C(\C)c1ccc(C)c(=O)o1)=C1/C(=O)C[C@H]2[C@@]3(C)CCC(=O)C(C)(C)[C@@H]3CC[C@]12C` [STELLETTIN B], the Activity in test [3] stood at 0.037 µg/mL.

As for `COc1cc([C@H]2c3cc4c(cc3C[C@H]3COC(=O)[C@H]32)OCO4)cc(OC)c1OC` [ISOPICRODEOXYPODOPHYLLOTOXIN], the Activity in test [3] is below 0.01 µg/mL.

On to `N#Cc1cn([C@@H]2O[C@H](CO)[C@@H](O)[C@H]2O)c2ncnc(N)c12` [TOYOCAMYCIN], for which the Activity in test [3] stood at 0.0023 µg/mL.

Turning to `CS[C@H]1SC[C@H]2C(=O)N(C)[C@@H](C(C)C)C(=O)OC[C@@H](NC(=O)c3cnc4ccccc4n3)C(=O)N[C@@H](C)C(=O)N(C)[C@@H]1C(=O)N(C)[C@@H](C(C)C)C(=O)OC[C@@H](NC(=O)c1cnc3ccccc3n1)C(=O)N[C@@H](C)C(=O)N2C` [ECHINOMYCIN], the Activity in test [3] amounted to 0.00147 µg/mL.

As for `C/C1=C\[C@H](C)C[C@H](C)OC(=O)C[C@H](c2ccc(O)cc2)NC(=O)[C@@H](Cc2c(Br)[nH]c3ccccc23)N(C)C(=O)[C@H](C)NC(=O)[C@@H](C)C1` [JASPAMIDE], the Activity in test [3] stood at 0.008 µg/mL.

Consider `NC1=N/C(=C2/CCNC(=O)c3[nH]ccc32)C(=O)N1` [DEBROMOHYMENIALDISINE], for which, in test [3], the Activity came out at 5 µg/mL.

For `NC1=NC(=O)/C(=C2\CCNC(=O)c3[nH]c(Br)cc32)N1` [HYMENIALDISINE], the Activity in test [3] stood at 2.4 µg/mL.
